Records with an inconclusive call do not appear. Calls of active or inactive are those of the source. How the calls were made is not given here.

The subject of this series is S. typhimurium/E. coli reverse mutation, colony counts. As to the kind of experiment: Bacterial reverse mutation test (aka Ames test) summary data. The procedure, abridged:
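Revertant colony counts on plates, compared with untreated controls, after about two days of growth. Exposure with or without liver S9 (rat/hamster/mouse), dose range per strain, 20-min 37° C preincubation or direct plate incorporation. Strains: his⁻ Salmonella, trp⁻ E. coli WP2 uvrA pKM101.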
Turning to `NC(=O)c1cccc([N+](=O)[O-])c1`, the outcome was “active; positive”.

With `CCNc1ccc([N+](=O)[O-])cc1C`, the outcome is “active; positive”. For `CCc1c(Br)c(Br)c(Br)c(Br)c1Br`, the outcome is “inactive; negative”. The same measure for `CCCCOCCOP(=O)(OCCOCCCC)OCCOCCCC`: “inactive; negative”. As to `COc1cc(-c2ccc(N=Nc3cc(S(=O)(=O)O)c4ccccc4c3O)c(OC)c2)ccc1N=Nc1cc(S(=O)(=O)O)c2ccccc2c1N`, the outcome was “inactive; negative”. The same measure for `CN(C)c1nc(=O)n(C2CCCCC2)c(=O)n1C`: “inactive; negative”; for `O=c1cc(O)nc[nH]1`: “inactive; negative”. For `O=C(O)C(Cl)Br` (stereo not drawn), the outcome is “active; positive”. In the case of `Nc1ccccc1` it was “inactive; negative”; in that of `O=[N+]([O-])c1cc(Cl)c(Cl)c(Cl)c1`, “active; positive”; in that of `CCCCOC(=O)c1ccc(N)cc1`, “inactive; negative”. In the case of `O=C1CCO1` it was “active; positive”.

Turning to `CCCCC1C(=O)N(c2ccccc2)N(c2ccccc2)C1=O`, the outcome was “inactive; negative”. With `C[Si]12OCCN(CCO1)CCO2`, the outcome was “inactive; negative”. The same measure for `Nc1ccc(N=Nc2ccc(-c3ccc(N=Nc4c(S(=O)(=O)O)cc5cc(S(=O)(=O)O)c(N=Nc6ccccc6)c(O)c5c4N)cc3)cc2)c(N)c1`: “active; positive”. The same measure for `O=[N+]([O-])c1ccc(Cl)cc1`: “active; positive”; for `ClC1C(Cl)C(Cl)C(Cl)C(Cl)C1Cl` (stereo not drawn): “inactive; negative”.

In the case of `Cc1ccc(Br)cc1`, the outcome was “inactive; negative”. As to `C[N+](C)(C)CCO`, the outcome was “inactive; negative”. In the case of `CCC#N` it was “inactive; negative”; in that of `Brc1c(Br)c(Br)c(Oc2c(Br)c(Br)c(Br)c(Br)c2Br)c(Br)c1Br`, “inactive; negative”. The same measure for `COc1cc(Cl)c(OC)cc1Cl`: “active; positive”; for `CC(=O)c1nccs1`: “inactive; negative”.

With `CCCCc1ccc(N=Cc2ccc(OC)cc2)cc1`, the outcome is “active; positive”. In the case of `O=[N+]([O-])c1cccc2ccccc12` it was “active; positive”. In the case of `CC(O)c1ccccc1` (stereo not drawn) it was “inactive; negative”; in that of `COc1ccc(CN(CCN(C)C)c2ncccn2)cc1`, “inactive; negative”; in that of `C=C1CC/C=C(\C)CC[C@@H]2[C@@H]1CC2(C)C`, “inactive; negative”. In the case of `O=C(O)c1ccc(C(=O)O)cc1` it was “inactive; negative”. `CCCCC(=O)N(C)C`: the outcome was “inactive; negative”. Take `CCCCCCC=O`: the outcome is “inactive; negative”. Take `O=C(O)CCC(=O)OC[C@@H](NC(=O)C(Cl)Cl)[C@H](O)c1ccc([N+](=O)[O-])cc1`: the outcome was “inactive; negative”. In the case of `O=C(O)CSCC(=O)O`, the outcome is “inactive; negative”. In the case of `S=C1NCCN1` it was “active; weakly positive”; in that of `O=C=S`, “active; weakly positive”; in that of `C=C(C)C(=O)NCCCN(C)C`, “inactive; negative”.

In the case of `CCCCOCCCC`, the outcome was “inactive; negative”. On to `O=C(O)CS`, for which the outcome is “inactive; negative”. The same measure for `CCCCCCCCC(=O)O`: “inactive; negative”; for `O=[N+]([O-])c1cc([As](=O)(O)O)ccc1O`: “inactive; negative”. Turning to `OCCOCCO`, the outcome is “inactive; negative”. For `COC(=O)c1ccc(C)cc1`, the outcome is “inactive; negative”.

For the molecule `NC(N)=S`, the outcome is “inactive; negative”. For the molecule `Nc1n[nH]c(N)n1`, the outcome was “inactive; negative”. In the case of `Cc1cc(N=Nc2ccccc2C)ccc1N` it was “active; positive”; in that of `O=C1[O][Bi][O]c2ccccc21`, “inactive; negative”; in that of `CCCCCCCCCCCCCOC(=O)c1ccccc1C(=O)OCCCCCCCCCCCCC`, “inactive; negative”.

As for `O=c1[nH]c(=O)[nH]c(=O)[nH]1`, the outcome was “inactive; negative”. For the molecule `COP(=O)(OC)OC`, the outcome is “active; positive”. Turning to `CCCCOC(=O)COc1ccc(Cl)cc1Cl`, the outcome is “inactive; negative”. In the case of `CCCCCCN` it was “inactive; negative”; in that of `ClCC(Cl)(Cl)Cl`, “inactive; negative”. In the case of `OCCNCCO` it was “inactive; negative”; in that of `C=C(C)[C@H]1CC=C(C)CC1`, “inactive; negative”; in that of `O=c1oc2c(O)c(O)cc3c(=O)oc4c(O)c(O)cc1c4c23`, “inactive; negative”. In the case of `CCCCCCCCCCCC(=O)O` it was “inactive; negative”; in that of `CCCCCCCCCCCC(=O)N(CCO)CCO`, “inactive; negative”. Take `CC(C)C(C)C`: the outcome was “inactive; negative”. With `Nc1nc(=O)n([C@@H]2CS[C@H](CO)O2)cc1F`, the outcome was “inactive; negative”. Take `FC(F)(F)c1ccc(Cl)cc1`: the outcome was “inactive; negative”. Consider `OC[P+](CO)(CO)CO`, for which the outcome is “inactive; negative”. In the case of `O[C@@H]([C@H](O)[C@H](O)CBr)[C@H](O)CBr`, the outcome is “active; positive”.

Regarding `C[S+](CC[C@H](N)C(=O)[O-])C[C@H]1O[C@@H](n2cnc3c(N)ncnc32)[C@H](O)[C@@H]1O` (stereo partly drawn), the outcome is “inactive; negative”. Turning to `O=C(O)C(=O)O`, the outcome was “inactive; negative”. The same measure for `OC(CCl)CCl`: “active; positive”.

For `O=S1OCC2C(CO1)C1(Cl)C(Cl)=C(Cl)C2(Cl)C1(Cl)Cl` (stereo not drawn), the outcome is “inactive; negative”. In the case of `Nc1cc(Cl)c([N+](=O)[O-])cc1O` it was “active; positive”. The same measure for `C#CCO`: “active; positive”.

For the molecule `c1ccc(P(c2ccccc2)c2ccccc2)cc1`, the outcome is “inactive; negative”. In the case of `Cc1cccc(C(=O)O)c1[N+](=O)[O-]` it was “active; positive”.

As to `NC=O`, the outcome is “inactive; negative”. In the case of `C=C(Cl)Cl` it was “inactive; negative”. Take `CC#N`: the outcome was “inactive; negative”.

For the molecule `C=CC(C)(O)CCC=C(C)C` (stereo not drawn), the outcome is “inactive; negative”.

Turning to `O=c1[nH]c(=O)n(Cl)c(=O)n1Cl`, the outcome was “inactive; negative”. Take `CNC(=O)ON=CC(C)(C)SC`: the outcome is “inactive; negative”. As to `C=C(C)c1ccccc1`, the outcome was “inactive; negative”. Regarding `CC(=O)O[C@H](CC(=O)[O-])C[N+](C)(C)C`, the outcome was “inactive; negative”. In the case of `CCCCCCCCCCCCCCC1CO1` (stereo not drawn) it was “inactive; negative”; in that of `Oc1ccc(C(c2ccc(O)cc2)(C(F)(F)F)C(F)(F)F)cc1`, “inactive; negative”.

As for `CCOP(=S)(OCC)SCSC(C)(C)C`, the outcome was “inactive; negative”. Take `CC(C)CN(CC(C)C)CC(C)C`: the outcome is “inactive; negative”. In the case of `C(=C\c1ccccc1)/c1ccccc1` it was “inactive; negative”; in that of `ClCCCCl`, “active; positive”. Regarding `CC(O)CN(CC(C)O)CC(C)O` (stereo not drawn), the outcome is “inactive; negative”. The same measure for `CC1=CC(C)(C)Nc2ccccc21`: “inactive; negative”; for `Cc1ccc(O)cc1`: “inactive; negative”. The same measure for `C[N+](C)(C)Cc1ccccc1`: “inactive; negative”.

Turning to `CCCCC`, the outcome is “inactive; negative”. In the case of `CCCCCCCCOc1ccc(C(=O)O)cc1` it was “inactive; negative”; in that of `CCC(C)(C)c1ccc(O)cc1`, “inactive; negative”. Consider `Cc1cccc(C)c1N`, for which the outcome is “active; weakly positive”. As to `Cc1c(C(=O)O)c(O)cc2c1C(=O)c1c(O)c([C@@H]3O[C@H](CO)[C@@H](O)[C@H](O)[C@H]3O)c(O)c(O)c1C2=O`, the outcome was “active; weakly positive”. For `Nc1ccc(Cl)cc1`, the outcome is “active; positive”. `c1cc(OCC2CO2)cc(OCC2CO2)c1` (stereo not drawn): the outcome is “active; positive”. With `OCCOc1ccccc1`, the outcome was “inactive; negative”. For the molecule `Cc1cc(C)c(S(=O)(=O)O)cc1N=Nc1cc(S(=O)(=O)O)c2ccccc2c1O`, the outcome is “inactive; negative”. Regarding `C=CCOC(=O)c1ccccc1C(=O)OCC=C`, the outcome is “inactive; negative”. As for `N#CC(Cl)Cl`, the outcome was “active; positive”. For the molecule `CCOc1ccc(NC(C)=O)cc1[N+](=O)[O-]`, the outcome was “active; positive”. Regarding `Nc1ccc(O)c(C(=O)O)c1`, the outcome is “inactive; negative”. Consider `CC(O)C#N` (stereo not drawn), for which the outcome is “active; weakly positive”. Turning to `CC(=O)Nc1ccc(O)cc1`, the outcome is “inactive; negative”. With `O=C(O)c1cc(O)c2c(c1)C(=O)c1cccc(O)c1C2=O`, the outcome is “active; positive”. In the case of `Nc1ccn([C@@H]2CS[C@H](CO)O2)c(=O)n1` it was “inactive; negative”; in that of `Clc1ccc(Cl)cc1`, “inactive; negative”; in that of `N#CCCO`, “inactive; negative”. The same measure for `O=P(OCCCl)(OCCCl)OCCCl`: “inactive; negative”; for `CC(O)CBr` (stereo not drawn): “active; positive”. The same measure for `Nc1ncc([N+](=O)[O-])s1`: “active; positive”. `COP(=O)(OC)C(O)C(Cl)(Cl)Cl` (stereo not drawn): the outcome is “active; weakly positive”. With `CN(C)c1ccc(C(=C2C=CC(=[N+](C)C)C=C2)c2ccccc2)cc1`, the outcome is “inactive; negative”. For the molecule `Nc1cc(Cl)ccc1O`, the outcome is “active; weakly positive”.

Source of the values: PubChem BioAssay AID2202554 (NIEHS Division of Translational Toxicology (DTT)).
